{"source": "patent US9084766B2", "about": "“Compounds and compositions for targeting cancer stem cells” (Boston Biomedical, Inc., priority 2010, dated 2015)", "key": {"[1]": {"system": "FaDu human head and neck cancer", "test": "Antitumor activity in subcutaneous FaDu xenograft mice", "assay_type": "in vivo", "method": "In the studies shown in FIG. 8, immunosuppressed mice with established subcutaneous FaDu human head and neck cancer were given indicated amount of hand grounded Compound 1 with Crystal Form 1, or vehicle control orally (po). Compound 1 was formulated in […]™. All regimens were administered daily (qd). Tumor sizes were evaluated periodically during treatment.\nIn the study shown in FIG. 9, immunosuppressed mice with established subcutaneous FaDu human head and neck cancer were given 100 mg/kg of micronized Compound 1 produced with the synthetic process described in FIGS. 5A and 5B (first crop), or vehicle control orally (po). Compound 1 was formulated in […]™. All regimens were administered daily (qd). Tumor sizes were evaluated periodically during treatment. Form 2 has been successfully manufactured by a current good manufacturing practice (cGMP) process and received approval from the FDA and Health Canada to be used in clinical trials.\nForm 3 can only be generated from Form 1 using a specially designed slurry process described herein. […] In the study shown in FIG. 10, immunosuppressed mice with established subcutaneous FaDu human head and neck cancer were given 200 mg/kg of Compound 1 with hand grounded Crystal Form 1 or Form 3, or vehicle control orally (po). Compound 1 was formulated in gelucire. All regimens were administered daily (qd). Tumor sizes were evaluated periodically during treatment. This polymorph has been successfully manufactured by a cGMP process and received approval from FDA and Health Canada to be used in clinical trials.\nThe anti-tumor activity of particles of Compound 1 with different particle size ranges is illustrated in FIG. 15, and the pharmacokinetic data for particles of Compound 1 with different particle size ranges is illustrated in FIGS. 16-18. In the study shown in FIG. 15, immunosuppressed mice with established subcutaneous FaDu human head and neck cancer were given indicated amount of Compound 1 with indicated particle size, or vehicle control orally (po). All regimens were administered daily (qd). Tumor size was evaluated periodically.\nIn an experiment, a formulation of Compound 1 particles sieved to 160 micron was tested in the model of immunosuppressed mice with established subcutaneous xenograft FaDu human head and neck cancer. The pharmaceutical composition was formulated as 80 mg/ml in 9% Gelucire, 20% Vitamin E TPGS (Table 3). […] All regimens were administered daily (qd).\nIn an experiment, Compound 1 crystals were milled to a median particle size of about 20 micron. […] All regimens were administered daily (qd).\nFaDu human head and neck cancer cells were inoculated subcutaneously into female athymic nude mice (6×10^6 cells/mouse) and allowed to form palpable tumors. When the tumors reached approximately 100 mm^3, the animals were treated orally (po) with Compound 1 at 100 mg/kg or vehicle control daily. Compound 1 was formulated at 10 mg/ml in 20% gelucire. Tumors and bodyweights were measured throughout treatment (FIG. 15).\nDaily examinations into the health status of each animal were also conducted. Body weights were checked every three days. Food and water was supplied daily according to the animal husbandry procedures of the facility. Treatment producing>20% lethality and or >20% net body weight loss were considered toxic. Results are expressed as mean tumor volume (mm^3)±SE. P Values<0.05 are considered to be statistically relevant.\nMale or female athymic nude mice 4-5 weeks (Charles River Laboratories, Wilmington, Mass.), were acclimated to the animal housing facility for at least 1 week before study initiation. […]"}, "[2]": {"test": "Phase I clinical trial: plasma pharmacokinetics", "assay_type": "in vivo, human", "settings": "clinical trials (FIG. 11, FIG. 12)", "method": "A favorable PK profile with oral bid dosing was also observed. The plasma concentration reached several folds over efficacious concentration (in vitro IC50).\nIn yet another suitable dosing regimen, Compound 1 is administered with food which delays the Tmax (Table 13)."}, "advanced solid tumors": {"system": "advanced solid tumors", "test": "Phase I clinical trial: tumor response (RECIST 1.1) and progression free survival", "assay_type": "in vivo, human", "settings": "clinical trials", "from_the_text": "As of Feb. 7, 2011, 42 cancer patients with various advanced solid tumors who have failed chemotherapies were enrolled in the study.\nOf the 42 patients dosed, 24 were evaluable for tumor response as of Feb. 7, 2011; 16 (16/24 evaluable patients) achieved stable disease (8 to 75+ weeks)."}}, "note": "Entries after “also recorded” stand apart in the source; their conditions may differ."}
{"molecule": "CC(=O)c1cc2c(o1)C(=O)c1ccccc1C2=O", "note": "[Crystal Form 1, 2-acetyl-4H,9H-naphtho[2,3-b]furan-4,9-dione]", "values": [{"measurement": "anti-tumor activity", "setting": "[1]; hand grounded Crystal Form 1 in GELUCIRE, po qd (FIG. 8)", "result": "limited anti-tumor activity; also recorded: low anti-tumor activity"}]}
{"molecule": "CC(=O)c1cc2c(o1)C(=O)c1ccccc1C2=O", "note": "[Crystal Form 3, 2-acetyl-4H,9H-naphtho[2,3-b]furan-4,9-dione]", "values": [{"measurement": "antitumor activities", "setting": "[1]; 200 mg/kg hand grounded, in gelucire, po qd (FIG. 10)", "result": "potent antitumor activities"}]}
{"molecule": "CC(=O)c1cc2c(o1)C(=O)c1ccccc1C2=O", "note": "[Crystal Form 2, 2-acetyl-4H,9H-naphtho[2,3-b]furan-4,9-dione]", "values": [{"measurement": "pharmacokinetics in cancer patients", "setting": "[2]", "result": "desirable pharmacokinetics"}, {"measurement": "anti-tumor activity in cancer patients", "setting": "advanced solid tumors", "result": "strong signs of anti-tumor activity"}, {"measurement": "anti-tumor activity", "setting": "[1]; 100 mg/kg micronized (first crop) in GELUCIRE, po qd (FIG. 9)", "result": "potent anti-tumor activity"}]}
